{"source": "patent US20240148709A1", "about": "“METHODS OF TREATING EYE PAIN AND EYE DISORDERS” (Aisa Pharma, Inc., priority 2022, published 2024)", "tested_on": "participants with SSc-RP", "experiment": "Scleroderma Health Assessment Questionnaire (SHAQ), Phase 2a study Part A", "format": "in vivo, human", "description": "Part A—double-blind, placebo-controlled, parallel-group, dose selection, will assess the safety and efficacy of two doses of cilnidipine (10 mg and 20 mg), alone and in combination with tadalafil. A total of 36 participants will be randomized to one of six prespecified treatment arms. Refer to FIG. 1 for treatment arms in Part A of the study. Dosing last for 12 (±2) days in which participants will self-administer daily doses of assigned treatment in the morning. Each participant will take one capsule and one tablet to blind the active therapy being received.\nThe standard, validated, patient reported outcome measures tool for SSc patients, the SHAQ, will be collected at the time points specified in the study schedules (FIG. 2 and FIGS. 3A and 3B) to assess the participant's quality of life. The SHAQ includes a Raynaud's VAS that will also be reported separately.\nResults: Patients in the study were administered the Scleroderma Health Assessment Questionnaire (SHAQ) at the time of study entry and during clinic visits following the treatment period. The study is a two-part, parallel arm design, prospective, double-blind, randomized study conducted in Australia (Flinders Medical Center). 27 patients were randomized into the first phase of the study, following which a DSMB meeting was held, which reviewed data on the primary study endpoint and key Raynaud's secondary endpoints. Data on the SHAQ was not available for the DSMB to review. The mITT population, in which any data was available post treatment was 24 patients was the analysis population for this first part of the study. The second part (i.e., part B) of the study will randomize 36 patients in a double blind, randomized, prospective, placebo controlled, crossover study. In the first part (i.e., Part A) of the study for which data is presented, patients were randomized into 6 groups, cilnidipine at two doses (10 and 20 mg) alone and in combination with tadalafil 5 mg, tadalafil 5 mg alone, and placebo. […] The DSMB recommended that the study proceed into its double blind prospective cross overpowered second phase and compare cilnidipine 20 mg alone to placebo.", "key": {"[1]": {"details": "cilnidipine 10 mg and/or tadalafil 5 mg arms"}, "[2]": {"details": "cilnidipine 20 mg arms (alone or + tadalafil 5 mg)"}}}
{"smiles": "COCCOC(=O)C1=C(C)NC(C)=C(C(=O)OC/C=C/c2ccccc2)C1c1cccc([N+](=O)[O-])c1", "note": "(stereo not shown) [Cilnidipine, cilnidipine]", "values": [{"measurement": "SHAQ Visual Analog Scale-Raynaud's, In Clinic Visit (Day 12), Mean (SD)", "setting": "[1]", "value": "1.925 (1.9207)"}, {"measurement": "SHAQ Visual Analog Scale-Raynaud's, In Clinic Visit (Day 12), Median", "setting": "[1]", "value": 1.700}, {"measurement": "SHAQ Visual Analog Scale-Raynaud's, In Clinic Visit (Day 12), Min", "setting": "[1]", "value": 0.00}, {"measurement": "SHAQ Visual Analog Scale-Raynaud's, In Clinic Visit (Day 12), Q1", "setting": "[1]", "value": 0.400}, {"measurement": "SHAQ Visual Analog Scale-Raynaud's, In Clinic Visit (Day 12), Q3", "setting": "[1]", "value": 3.450}, {"measurement": "SHAQ Visual Analog Scale-Raynaud's, Percent Change from Baseline, Max", "setting": "[1]", "value": 136.4, "unit": "%"}, {"measurement": "SHAQ Visual Analog Scale-Raynaud's, Percent Change from Baseline, Mean (SD)", "setting": "[1]", "value": "11.36 (118.770) %"}, {"measurement": "SHAQ Visual Analog Scale-Raynaud's, Percent Change from Baseline, Median", "setting": "[1]", "value": "−2.27", "unit": "%"}, {"measurement": "SHAQ Visual Analog Scale-Raynaud's, Percent Change from Baseline, Min", "setting": "[1]", "value": "−100.0", "unit": "%"}, {"measurement": "SHAQ Visual Analog Scale-Raynaud's, Percent Change from Baseline, Q1", "setting": "[1]", "value": "−100.00", "unit": "%"}, {"measurement": "SHAQ alternative disability index, Change from Baseline, Max", "setting": "[1]", "value": 0.38}, {"measurement": "SHAQ alternative disability index, Change from Baseline, Mean (SD)", "setting": "[1]", "value": "0.063 (0.2165)"}, {"measurement": "SHAQ alternative disability index, Change from Baseline, Median", "setting": "[1]", "value": 0.000}, {"measurement": "SHAQ alternative disability index, Change from Baseline, Min", "setting": "[1]", "value": "−0.13"}, {"measurement": "SHAQ alternative disability index, Change from Baseline, Q1", "setting": "[1]", "value": "−0.063"}, {"measurement": "SHAQ alternative disability index, Change from Baseline, Q3", "setting": "[1]", "value": 0.188}, {"measurement": "SHAQ alternative disability index, In Clinic Visit (Day 12), Max", "setting": "[1]", "value": 1.25}, {"measurement": "SHAQ alternative disability index, In Clinic Visit (Day 12), Mean (SD)", "setting": "[1]", "value": "0.563 (0.6575)"}, {"measurement": "SHAQ alternative disability index, In Clinic Visit (Day 12), Median", "setting": "[1]", "value": 0.500}, {"measurement": "SHAQ alternative disability index, In Clinic Visit (Day 12), Min", "setting": "[1]", "value": 0.00}, {"measurement": "SHAQ alternative disability index, In Clinic Visit (Day 12), Q1", "setting": "[1]", "value": 0.000}, {"measurement": "SHAQ alternative disability index, In Clinic Visit (Day 12), Q3", "setting": "[1]", "value": 1.125}, {"measurement": "SHAQ alternative disability index, Percent Change from Baseline, Max", "setting": "[1]", "value": 42.9, "unit": "%"}, {"measurement": "SHAQ alternative disability index, Percent Change from Baseline, Mean (SD)", "setting": "[1]", "value": "15.87 (38.161) %"}, {"measurement": "SHAQ alternative disability index, Percent Change from Baseline, Median", "setting": "[1]", "value": 15.87, "unit": "%"}, {"measurement": "SHAQ alternative disability index, Percent Change from Baseline, Min", "setting": "[1]", "value": "−11.1", "unit": "%"}, {"measurement": "SHAQ alternative disability index, Percent Change from Baseline, Q1", "setting": "[1]", "value": "−11.11", "unit": "%"}, {"measurement": "SHAQ alternative disability index, Percent Change from Baseline, Q3", "setting": "[1]", "value": 42.86, "unit": "%"}, {"measurement": "SHAQ Finger Ulcers, Change from Baseline, Max", "setting": "[2]", "value": 0.40}, {"measurement": "SHAQ Finger Ulcers, Change from Baseline, Mean (SD)", "setting": "[2]", "value": "−0.933 (1.9732)"}, {"measurement": "SHAQ Finger Ulcers, Change from Baseline, Median", "setting": "[2]", "value": 0.000}, {"measurement": "SHAQ Finger Ulcers, Change from Baseline, Min", "setting": "[2]", "value": "−3.20"}, {"measurement": "SHAQ Finger Ulcers, Change from Baseline, Q1", "setting": "[2]", "value": "−3.200"}, {"measurement": "SHAQ Finger Ulcers, Change from Baseline, Q3", "setting": "[2]", "value": 0.400}, {"measurement": "SHAQ Finger Ulcers, In Clinic Visit (Day 12), Max", "setting": "[2]", "value": 1.90}, {"measurement": "SHAQ Finger Ulcers, In Clinic Visit (Day 12), Mean (SD)", "setting": "[2]", "value": "0.867 (0.9609)"}, {"measurement": "SHAQ Finger Ulcers, In Clinic Visit (Day 12), Median", "setting": "[2]", "value": 0.700}, {"measurement": "SHAQ Finger Ulcers, In Clinic Visit (Day 12), Min", "setting": "[2]", "value": 0.00}, {"measurement": "SHAQ Finger Ulcers, In Clinic Visit (Day 12), Q1", "setting": "[2]", "value": 0.000}, {"measurement": "SHAQ Finger Ulcers, In Clinic Visit (Day 12), Q3", "setting": "[2]", "value": 1.900}, {"measurement": "SHAQ Finger Ulcers, Percent Change from Baseline, Max", "setting": "[2]", "value": 133.3, "unit": "%"}, {"measurement": "SHAQ Finger Ulcers, Percent Change from Baseline, Mean (SD)", "setting": "[2]", "value": "35.29 (138.648) %"}, {"measurement": "SHAQ Finger Ulcers, Percent Change from Baseline, Median", "setting": "[2]", "value": 35.29, "unit": "%"}, {"measurement": "SHAQ Finger Ulcers, Percent Change from Baseline, Min", "setting": "[2]", "value": "−62.7", "unit": "%"}, {"measurement": "SHAQ Finger Ulcers, Percent Change from Baseline, Q1", "setting": "[2]", "value": "−62.75", "unit": "%"}, {"measurement": "SHAQ Finger Ulcers, Percent Change from Baseline, Q3", "setting": "[2]", "value": 133.33, "unit": "%"}, {"measurement": "SHAQ Overall Change in Severity, Change from Baseline, Max", "setting": "[2]", "value": "−1.50"}, {"measurement": "SHAQ Overall Change in Severity, Change from Baseline, Median", "setting": "[2]", "value": "−1.600"}, {"measurement": "SHAQ Overall Change in Severity, Change from Baseline, Min", "setting": "[2]", "value": "−1.80"}, {"measurement": "SHAQ Overall Change in Severity, Change from Baseline, Q1", "setting": "[2]", "value": "−1.800"}, {"measurement": "SHAQ Overall Change in Severity, Change from Baseline, Q3", "setting": "[2]", "value": "−1.500"}, {"measurement": "SHAQ Overall Change in Severity, In Clinic Visit (Day 12), Max", "setting": "[2]", "value": 1.40}, {"measurement": "SHAQ Overall Change in Severity, In Clinic Visit (Day 12), Mean (SD)", "setting": "[2]", "value": "1.033 (0.4726)"}, {"measurement": "SHAQ Overall Change in Severity, In Clinic Visit (Day 12), Median", "setting": "[2]", "value": 1.200}, {"measurement": "SHAQ Overall Change in Severity, In Clinic Visit (Day 12), Min", "setting": "[2]", "value": 0.50}, {"measurement": "SHAQ Overall Change in Severity, In Clinic Visit (Day 12), Q1", "setting": "[2]", "value": 0.500}, {"measurement": "SHAQ Overall Change in Severity, In Clinic Visit (Day 12), Q3", "setting": "[2]", "value": 1.400}, {"measurement": "SHAQ Overall Change in Severity, Percent Change from Baseline, Max", "setting": "[2]", "value": "−51.7", "unit": "%"}, {"measurement": "SHAQ Overall Change in Severity, Percent Change from Baseline, Mean (SD)", "setting": "[2]", "value": "−62.64 (12.445) %"}, {"measurement": "SHAQ Overall Change in Severity, Percent Change from Baseline, Median", "setting": "[2]", "value": "−60.00", "unit": "%"}, {"measurement": "SHAQ Overall Change in Severity, Percent Change from Baseline, Min", "setting": "[2]", "value": "−76.2", "unit": "%"}, {"measurement": "SHAQ Overall Change in Severity, Percent Change from Baseline, Q1", "setting": "[2]", "value": "−76.19", "unit": "%"}, {"measurement": "SHAQ Overall Change in Severity, Percent Change from Baseline, Q3", "setting": "[2]", "value": "−51.72", "unit": "%"}, {"measurement": "SHAQ Standard disability index, Change from Baseline, Max", "setting": "[2]", "value": 0.00}, {"measurement": "SHAQ Standard disability index, Change from Baseline, Mean (SD)", "setting": "[2]", "value": "−0.125 (0.1250)"}, {"measurement": "SHAQ Standard disability index, Change from Baseline, Median", "setting": "[2]", "value": "−0.125"}, {"measurement": "SHAQ Standard disability index, Change from Baseline, Min", "setting": "[2]", "value": "−0.25"}, {"measurement": "SHAQ Standard disability index, Change from Baseline, Q1", "setting": "[2]", "value": "−0.250"}, {"measurement": "SHAQ Standard disability index, Change from Baseline, Q3", "setting": "[2]", "value": 0.000}, {"measurement": "SHAQ Standard disability index, In Clinic Visit (Day 12), Max", "setting": "[2]", "value": 0.25}, {"measurement": "SHAQ Standard disability index, In Clinic Visit (Day 12), Mean (SD)", "setting": "[2]", "value": "0.125 (0.1250)"}, {"measurement": "SHAQ Standard disability index, In Clinic Visit (Day 12), Median", "setting": "[2]", "value": 0.125}, {"measurement": "SHAQ Standard disability index, In Clinic Visit (Day 12), Min", "setting": "[2]", "value": 0.00}, {"measurement": "SHAQ Standard disability index, In Clinic Visit (Day 12), Q1", "setting": "[2]", "value": 0.000}, {"measurement": "SHAQ Standard disability index, In Clinic Visit (Day 12), Q3", "setting": "[2]", "value": 0.250}, {"measurement": "SHAQ Standard disability index, Percent Change from Baseline, Max", "setting": "[2]", "value": "−33.3", "unit": "%"}, {"measurement": "SHAQ Standard disability index, Percent Change from Baseline, Mean (SD)", "setting": "[2]", "value": "−50.00 (23.570) %"}, {"measurement": "SHAQ Standard disability index, Percent Change from Baseline, Median", "setting": "[2]", "value": "−50.00", "unit": "%"}, {"measurement": "SHAQ Standard disability index, Percent Change from Baseline, Min", "setting": "[2]", "value": "−66.7", "unit": "%"}, {"measurement": "SHAQ Standard disability index, Percent Change from Baseline, Q1", "setting": "[2]", "value": "−66.67", "unit": "%"}, {"measurement": "SHAQ Standard disability index, Percent Change from Baseline, Q3", "setting": "[2]", "value": "−33.33", "unit": "%"}, {"measurement": "SHAQ Visual Analog Scale-Breathing Problems, Change from Baseline, Max", "setting": "[2]", "value": 0.30}, {"measurement": "SHAQ Visual Analog Scale-Breathing Problems, Change from Baseline, Median", "setting": "[2]", "value": "−0.800"}, {"measurement": "SHAQ Visual Analog Scale-Breathing Problems, Change from Baseline, Min", "setting": "[2]", "value": "−2.00"}, {"measurement": "SHAQ Visual Analog Scale-Breathing Problems, Change from Baseline, Q1", "setting": "[2]", "value": "−2.000"}]}
